Measured values taken from patent publication US20260130885A1, “ANTIMICROBIAL COMPOSITIONS, PHARMACEUTICAL COMPOSITIONS AND USE THEREOF” (priority 2022, published 2026).
Converted amounts (≈) assume the structure as drawn. Where two headings read alike, the source gives them in different places.

Key:
[1] = Antiproliferation assay (MTT); type: cell-based; settings: human, read-out: CC50 of SC5005
From the text: (§1) The murine macrophage cell line RAW264.7 (BCRC) and human cervical epithelioid carcinoma cell line HeLa (BCRC) were maintained in Dulbecco's modified Eagle's medium (DMEM; Gibco-BRL) supplemented with 10% heat-inactivated FBS (Gibco-BRL). The human embryonic kidney cell line HEK-293 (BCRC) and the immortalized nontumorigenic keratinocyte cell line HaCaT (obtained from Dr. Yung-Chiy Chang, National Taiwan University, Taiwan) were maintained in Roswell Park Memorial Institute (RPMI; Gibco-BRL) medium supplemented with 10% heat-inactivated FBS. Cells were cultured in T-75 flasks at 37° C. in a 5% CO2 atmosphere.
(§2) The effects of SC5005 and DHA on the viability of mammalian cells were assessed using a 3-(4,5-dimethylthiazol-2-yl)-2,5-diphenyl-2H-tetrazolium bromide (MTT) assay in six replicates per treatment group. Briefly, cells were seeded into 96-well, flat-bottomed plates at 10^4 cells/well, cultured for 24 hours, and then exposed to SC5005 at concentrations ranging from 5-30 mg/L or the combination of SC5005 with designated concentrations of DHA for 24 hours. Controls were treated with DMSO and ethanol vehicles at concentrations equal to those for drug-treated cells. At the end of treatments, the medium was replaced with 0.5 g/L MTT-containing culture medium, and the cells were incubated in a CO2 incubator at 37° C. for an additional 1.5 hours. Supernatants were removed from the wells, and the reduced MTT dye was solubilized in DMSO followed by measuring the absorbance at 570 nm of each well using a VersaMax microplate reader (Molecular Devices, USA).

[2] = tested on: Staphylococcus aureus NCTC8325; test: Time-kill kinetics (cfu assay); type: cell-based; settings: SC5005 4×MIC, 1 mg/L; FIG. 1
Experimental: The number of viable bacteria in broth after each exposure period was enumerated by a cfu assay and expressed as cfu/mL; the data shown are the mean±SD (standard deviation) of independent experiments. […] The number of viable bacteria in the broth after each exposure period was calculated by a cfu assay (cfu/mL); the data are shown as the mean±SD of three independent experiments (n=3 for each group). Since the standard deviation of each point is very small, the error line is not shown in each graph. The horizontal dashed line in the upper left graph and the upper right graph represents […] of the bacterial cells killed. In addition, the blank controls in FIG. 1 are shown as filled diamonds.
In this experiment, the inventor analyzed the time-kill kinetics of SC5005, DHA, and a combination thereof against Staphylococcus aureus NCTC8325 and MRSA USA300, and the results are shown in FIG. 1. It can be seen in FIG. 1 that SC5005 killed more than 99.9% of the bacteria within 24 hours. […] Besides, it is well known in the art that Staphylococcus aureus can enter a dormant state (i.e., become the so-called persister cells) and develop resistance to antibiotic treatment, thus leading to repeated bacterial infections.

[3] = tested on: S. aureus DAP-NS; test: Antibacterial activity assay (MIC, broth microdilution); type: cell-based, Staphylococcus aureus; settings: for MIC: Staphylococcus aureus
[4] = Antiproliferation assay (MTT); type: cell-based, murine; settings: mouse, RAW264.7 macrophage cells, read-out: CC50 of SC5005
Experimental: FIG. 2: The biofilms of S. aureus NCTC8325 (the upper left graph) and MRSA USA300 (the upper right graph) were treated with increasing concentrations of blank control (Mock), DHA, daptomycin (DAP), vancomycin (VAN), SC5005, and SC5005 in combination with DHA for 24 hours. The number of viable bacteria was then determined using a cfu assay. The data represent individual experiments and are shown as the mean±SD (n=3 per group). ns, nonsignificant, p>0.05; *p<0.05; **p<0.01; ***p<0.001. (The lower left graph) the biofilms of MRSA USA300 were treated with blank control (Mock) or SC5005 along with 80 mg/L DHA for 1, 3 or 10 minute(s). The viable bacteria in the biofilms harvested and enumerated using a cfu assay. The data represent independent experiments and are shown as mean±SD (n=3 per group). ns, nonsignificant, p>0.05; *p<0.05; **p<0.01; ***p<0.001 (The lower right graph) RAW264.7 cells were exposed to a blank control (Mock) or increasing concentrations of SC5005 and 80 mg/L DHA for […]. The viability of cells was determined by the MTT assay and expressed as a percentage relative to mock (DMSO and ethanol)-treated cells. The data shown are the mean±SD (n=3 per group).
as §1, §2

[5] = tested on: MRSA ATCC33591; test: Antibacterial activity assay (MIC, broth microdilution); type: cell-based, Staphylococcus aureus; settings: for MIC: Staphylococcus aureus

**Q.** What does the source list for `O=C(Nc1ccc(Cl)c(C(F)(F)F)c1)C(CCCl)C(=O)Nc1ccc(Cl)c(C(F)(F)F)c1` [SC5005]?
**A.** CC50 at 24 h ([1]; HEK-293 cells, DHA 0 mg/L): 14.1 ± 1.4 µg/mL; CC50 at 24 h ([1]; HEK-293 cells, DHA 4 mg/L): 15.6 ± 0.6 µg/mL; CC50 at 24 h ([1]; HEK-293 cells, DHA 8 mg/L): 14.9 ± 1.6 µg/mL; CC50 at 24 h ([1]; HEK-293 cells, DHA 16 mg/L): 14 ± 0.8 µg/mL; CC50 at 24 h ([1]; HaCaT keratinocyte cells, DHA 0 mg/L): 18 ± 1.7 µg/mL; CC50 at 24 h ([1]; HaCaT keratinocyte cells, DHA 4 mg/L): 19.5 ± 1.7 µg/mL; CC50 at 24 h ([1]; HaCaT keratinocyte cells, DHA 8 mg/L): 20.5 ± 0.3 µg/mL; CC50 at 24 h ([1]; HaCaT keratinocyte cells, DHA 16 mg/L): 18.1 ± 1.6 µg/mL; CC50 at 24 h ([1]; HeLa cells, DHA 0 mg/L): 22.5 ± 0.7 µg/mL; CC50 at 24 h ([1]; HeLa cells, DHA 4 mg/L): 24.2 ± 3.6 µg/mL; CC50 at 24 h ([1]; HeLa cells, DHA 8 mg/L): 21.9 ± 1.6 µg/mL; CC50 at 24 h ([1]; HeLa cells, DHA 16 mg/L): 21.4 ± 1.4 µg/mL; bacteria killed within 24 hours [2]: more than 99.9%; combination effect ([3]; MIC, +8 mg/L DHA): (Syn) (Synergy (Syn) was defined as an FICI≤0.5); MIC ([3]; +8 mg/L DHA): 0.0019 ng/mL (≈ 0.00364 nM); MIC ([3]; agent alone): 250 ng/mL (≈ 479 nM); CC50 at 24 h ([4]; DHA 0 mg/L): 19.5 ± 0.6 µg/mL; CC50 at 24 h ([4]; DHA 4 mg/L): 22.6 ± 0.8 µg/mL; CC50 at 24 h ([4]; DHA 8 mg/L): 19.7 ± 2.5 µg/mL; CC50 at 24 h ([4]; DHA 16 mg/L): 21.2 ± 2.3 µg/mL; combination effect ([5]; MIC, +8 mg/L DHA): (Syn) (Synergy (Syn) was defined as an FICI≤0.5); MIC ([5]; +8 mg/L DHA): 0.061 ng/mL (≈ 0.117 nM); MIC ([5]; agent alone): 250 ng/mL (≈ 479 nM)
